Consider one compound from patent publication EP2378291A1, “Lacosamide detection assay” (UCB Pharma GmbH, priority 2010, dated 2011).

Read-outs that look alike come from different tables or passages of the source.

Series [1] in a line: Clinical study: saliva and plasma samples taken in parallel, correlation of lacosamide concentrations. Type of series: in vivo, human. The conditions noted are these: for Kp: human, saliva. The procedure: One embodiment of the present disclosure relates to the use of saliva samples as a tool to assess the concentration of lacosamide in the body of a mammal, particularly a human being. […] Preferably, saliva samples should be taken at least about 1 hour, preferably at least about 2 hours after an actual administration of lacosamide to said mammal to allow a steady state concentration to form, and to allow the proportional distribution of lacosamide into the saliva.
Accordingly, one embodiment of the current invention relates to the use of a saliva sample to assess the concentration of lacosamide in the body of a mammal, particularly in the plasma of a patient This can be done based on the recognition that the concentration of lacosamide in saliva is about 1.17 times the concentration in plasma. Based on the measurement of lacosamide in saliva, the concentration in plasma can be easily assessed using the equation C plasma= C saliva x about 0.855 (see Example 3 in the experimental part). The determination of lacosamide in saliva should be done in the steady state, which is usually reached after about one hour to two hours after the last drug administration to the mammal/patient from which the saliva sample is to be taken.
In a clinical study saliva and plasma samples have been taken in parallel.
The concentrations of lacosamide can be calculated using the following equations: Saliva concentration of lacosamide = 0.065 + 1.1697*plasma concentration of lacosamide [formula] Plasma concentration of lacosamide = 0.855*saliva concentration of lacosamide [formula]
These equations were validated by comparing measured lacosamide plasma concentrations with plasma concentrations predicted from measured saliva concentrations.

Series [2] in a line: Expected plasma Cmax at bid doses, used for individual dose adaptation. Type of series: in vivo. The protocol: Based on the determination of the actual lacosamide concentration in plasma (Cmessured) measured at time t (in hours after actual administration) and the comparison with the target concentration, an individual dosing may be adapted according to the following formula dose_new = dose_old⋅(Cmax,expected ⋅e^(-0.05⋅t))/(Cmeasured ⋅e^(-0.05⋅1h)) [formula]
The expected Cmax is usually at about 5, 10, 15, or 20 µg/mL for dose 100, 200, 300, or 400 mg bid.

Series [3] in a line: Lacosamide plasma concentration of a patient, HPLC-UV assay with internal standard. Type of series: in vivo. To be noted: human, patient taking 100 mg twice a day, sample 7 h after the last administration, read-out: measured lacosamide plasma concentration. The protocol:
100 µL of plasma are transferred into Eppendorf tubes.
Calibration samples are added 10 µL working solution.
Study samples are added 10 µL of working solution int standard
After mixing 300 µL of methanol were added, the mixture is vortexed again and centrifuged
10 minutes at room temperature. 70 µL of the supernatant were transferred into a autosamplervial.
15 µL were injected into the HPLC-system.
For calibration the mean response factor for the peakheight ratios at 10 µg/mL was calculated: • RF = peakheight lacosamide/ peakheight int. Std. • Concentration in samples were calculated: 10/RFcalibration*RFsample
A patient taking 100 mg twice a day is suffering from seizures. A sample is taken 7 h after the last administration of lacosamide. The measured lacosamide plasma concentration is 1.9 µg/mL. The newly requested Cmax is 5 µg/mL, and the new dose has to be dose_new = 100⋅(5⋅e^(-0.05⋅t))/(1.9⋅e^(-0.05⋅1h)) = 195 mg bid (dose has to be doubled) [formula]

For `COC[C@@H](NC(C)=O)C(=O)NCc1ccccc1` [Lacosamide, (R)-2-acetamido-N-benzyl-3-methoxypropionamide], the “correlation between lacosamide concentrations in saliva and plasma” value in series [1] (Figure 2) is “excellent correlation”. For the same compound, the Kp in series [1] (regression equation with intercept 0.065, read-out: slope of Saliva concentration of lacosamide versus plasma concentration of lacosamide) is 1.17; in series [1] (steady state, about one to two hours after last administration, read-out: concentration of lacosamide in saliva relative to the concentration in plasma) it was around 1.17. In addition, the Cmax in series [2] (dose 100 mg bid) is around 5000 ng/mL; in series [2] (dose 200 mg bid), around 10000 ng/mL; in series [2] (dose 300 mg bid), around 15000 ng/mL; in series [2] (dose 400 mg bid) it was around 20000 ng/mL. In addition, the concentration at 7 h in series [3] is 1900 ng/mL.

By Cmax is commonly meant the maximum level reached in the sampled fluid or tissue.
